52 molecules from the PolyMetriX glass transition set can be followed below.

In turn, `*/C=C/c1ccc(OC(=O)c2ccc(C(=O)Oc3cccc4ccc(*)nc34)cc2)cc1` (repeat unit) had a glass transition temperature of 112.00 °C. Regarding `*C(=O)Nc1ccc(Oc2cc(C(C)(C)C)c(Oc3ccc(NC(=O)c4ccc5c(c4)C(=O)N(c4ccc(Oc6ccc(C7(c8ccc(Oc9ccc(N%10C(=O)c%11ccc(*)cc%11C%10=O)cc9)cc8)CC8CC7C7CCCC87)cc6)cc4)C5=O)cc3)cc2C(C)(C)C)cc1` (repeat unit), the glass transition temperature stood at 290.00 °C. Regarding `*C(=O)Nc1ccc(Oc2ccc(-c3ccc(Oc4ccc(NC(=O)c5ccc6c(c5)C(=O)N(c5ccc(Oc7ccc(C8(c9ccc(Oc%10ccc(N%11C(=O)c%12ccc(*)cc%12C%11=O)cc%10)cc9)CC9CC8C8CCCC98)cc7)cc5)C6=O)cc4)cc3C)c(C)c2)cc1` (repeat unit), the glass transition temperature was found to be 265.00 °C.

The molecule `*C(=O)c1ccc(Oc2c(C)cc(-c3cc(C)c(Oc4ccc(C(=O)c5ccc6nc(*)ccc6c5)cc4)c(C)c3C)c(C)c2C)cc1` (repeat unit) registered a glass transition temperature of 250.00 °C. Under `*Oc1c(C)c(C)c(Oc2ccc(NC(=O)c3ccc(C(=O)Nc4ccc(*)cc4)cc3)cc2)c(C)c1C` (repeat unit) stands 310.00 °C; under `*Oc1c(C)cc(-c2cc(CBr)c(Oc3ccc(C(=O)c4ccc(*)cc4)cc3)c(CBr)c2)cc1CBr` (repeat unit), 163.67 °C; under `*Oc1ccc(/C=C2\CC/C(=C\c3ccc(OC(=O)c4ccc(/N=C/c5ccc(/C=N/c6ccc(C(*)=O)cc6)cc5)cc4)cc3)C2=O)cc1` (repeat unit), 205.00 °C. Molecule `*Oc1ccc(/N=N/c2ccc(Cc3ccc(/N=N/c4ccc(OC(=O)c5ccc(C(*)=O)cc5)cc4)cc3[N+](=O)[O-])c([N+](=O)[O-])c2)cc1` (repeat unit) came in with a glass transition temperature of 198.00 °C. As for `*Oc1ccc(C(=O)c2ccccc2)c(-c2cc(Oc3ccc(C(c4ccc(*)cc4)(C(F)(F)F)C(F)(F)F)cc3)ccc2C(=O)c2ccccc2)c1` (repeat unit), the figure is 164.00 °C; as for `*Oc1ccc(C(c2ccc(OC(*)=O)cc2)(C(F)(F)Cl)C(F)(F)Cl)cc1` (repeat unit), 183.50 °C. `*Oc1ccc(C(c2ccc(OC(*)=O)cc2)C2C3CCC(C3)C2c2ccccc2)cc1` (repeat unit): the glass transition temperature was 196.00 °C.

In turn, `*Oc1ccc(C(c2ccc(OC(=O)c3ccc(OCCCCCCCCCCOc4ccc(C(*)=O)cc4)cc3)cc2)(C(F)(F)F)C(F)(F)F)cc1` (repeat unit) yielded a glass transition temperature of 89.00 °C. As to `*Oc1ccc(C(c2ccccc2)(c2ccccc2)c2ccc(OC(=O)c3ccc(C(*)=O)cc3)cc2)cc1` (repeat unit), the glass transition temperature came to 210.00 °C. With `*Oc1ccc(C(c2ccccc2)c2ccc(OC(*)=O)cc2)cc1` (repeat unit), the glass transition temperature worked out at 170.00 °C. Under `*Oc1ccc(C(c2ccccc2)c2ccc(OC(*)=S)cc2)cc1` (repeat unit) stands 179.00 °C; under `*Oc1ccc(C2(c3ccc(OC(*)=O)c(Cl)c3)CC3CCC2C3)cc1Cl` (repeat unit), 200.00 °C. As for `*Oc1ccc(C2(c3ccc(OC(*)=O)cc3)CCCC2)cc1` (repeat unit), the figure is 166.00 °C. In turn, `*Oc1ccc(C2(c3ccc(OC(*)=O)cc3)CCCCC2)cc1` (repeat unit) showed a glass transition temperature of 175.00 °C. As for `*Oc1ccc(C2(c3ccc(OC(*)=O)cc3)c3ccccc3-c3ccccc32)cc1` (repeat unit), the figure is 355.00 °C; as for `*Oc1ccc(C2(c3ccc(OC(*)=S)cc3)CCCC2)cc1` (repeat unit), 79.00 °C; as for `*Oc1ccc(C2(c3ccc(OC(*)=S)cc3)CCCCC2)cc1` (repeat unit), 155.00 °C.

In turn, `*Oc1ccc(C2(c3ccc(OC(=O)c4cccc(C(*)=O)c4)cc3)CCCCC2)cc1` (repeat unit) returned a glass transition temperature of 127.00 °C.

On to `*Oc1ccc(C2(c3ccc(Oc4ccc(C(=O)c5ccccc5)c(-c5cc(*)ccc5C(=O)c5ccccc5)c4)cc3)c3ccccc3-c3ccccc32)cc1` (repeat unit), for which the glass transition temperature was determined as 215.00 °C. `*Oc1ccc(C2(c3ccc(Oc4ccc5c(=O)n6c7cc(-c8ccc9c(c8)nc8c%10ccc(*)c%11cccc(c(=O)n98)c%11%10)ccc7nc6c6cccc4c56)cc3)c3ccccc3-c3ccccc32)cc1` (repeat unit) came in with a glass transition temperature of 421.00 °C. On to `*Oc1ccc(N[Se]Nc2ccc(*)cc2)cc1` (repeat unit), for which the glass transition temperature was found to be 55.00 °C. As for `*Oc1ccc(Oc2ccc(C(=O)Nc3ccc(Oc4ccc(S(=O)(=O)c5ccc(Oc6ccc(NC(=O)c7ccc(*)cc7)cc6)cc5)cc4)cc3)cc2)cc1C` (repeat unit), the figure is 217.00 °C; as for `*Oc1ccc(Oc2ccc(C(=O)c3ccc(*)c(S(=O)(=O)O)c3)cc2S(=O)(=O)O)cc1S(=O)(=O)O` (repeat unit), 248.00 °C; as for `*Oc1ccc(Oc2ccc(C(=O)c3ccc(*)cc3)cc2)cc1-c1ccc(Oc2ccccc2)cc1` (repeat unit), 146.00 °C. Turning to `*Oc1ccc(Oc2ccc(C(=O)c3ccc(*)cc3)cc2)cc1-c1ccccc1` (repeat unit), the glass transition temperature was determined as 157.00 °C. Under `*Oc1ccc(Oc2ccc(C(=O)c3ccc(*)cc3)cc2)cc1C` (repeat unit) stands 151.00 °C; under `*Oc1ccc(Oc2ccc(C(=O)c3ccc(*)cc3)cc2)cc1C(C)(C)C` (repeat unit), 177.00 °C; under `*Oc1ccc(Oc2ccc(C(=O)c3ccc(C(=O)c4ccc(*)cc4)cc3)cc2)cc1-c1ccc(S(=O)(=O)O)c(C)c1` (repeat unit), 167.00 °C. Turning to `*Oc1ccc(Oc2ccc(NC(=O)c3ccc(Oc4ccc(Oc5ccc(C(=O)Nc6ccc(*)cc6)cc5)cc4C)cc3)cc2)cc1` (repeat unit), the glass transition temperature was found to be 200.00 °C. As for `*Oc1ccc(S(=O)(=O)c2ccc(Oc3ccc(C(=O)c4cc(C(=O)c5ccc(*)cc5)cc(C(C)(C)C)c4)cc3)cc2)cc1` (repeat unit), the figure is 198.00 °C; as for `*c1ccc(OC(=O)c2ccc(C(=O)Oc3ccc(-c4nc5ccccc5nc4*)cc3)cc2)cc1` (repeat unit), 232.00 °C; as for `*c1ccc(OC(=O)c2cccc(C(=O)Oc3ccc(C4(*)C(=O)Nc5ccccc54)cc3)c2)cc1` (repeat unit), 256.00 °C.

The molecule `*c1ccc(Oc2cc(C(C)(C)C)c(Oc3ccc(-n4c(=O)c5cc6c(=O)n(*)c(=O)c6cc5c4=O)cc3)cc2C(C)(C)C)cc1` (repeat unit) showed a glass transition temperature of 298.00 °C. Under `*c1ccc(Oc2ccc(-c3ccc(Oc4ccc(N5C(=O)c6ccc(Oc7ccc(C8(c9ccc(Oc%10ccc%11c(c%10)C(=O)N(*)C%11=O)cc9)CCC(c9ccccc9)CC8)cc7)cc6C5=O)cc4)cc3C)c(C)c2)cc1` (repeat unit) stands 226.00 °C; under `*c1ccc(Oc2ccc(-c3ccc(Oc4ccc(N5C(=O)c6ccc(Oc7ccc(C8(c9ccc(Oc%10ccc%11c(c%10)C(=O)N(*)C%11=O)cc9)CCCCCCCCCCC8)cc7)cc6C5=O)cc4)cc3C)c(C)c2)cc1` (repeat unit), 257.00 °C; under `*c1ccc(Oc2ccc(-c3ccc(Oc4ccc(N5C(=O)c6cccc(Oc7ccc(C(c8ccc(Oc9cccc%10c9C(=O)N(*)C%10=O)cc8)(C(F)(F)F)C(F)(F)F)cc7)c6C5=O)cc4)cc3)cc2)cc1` (repeat unit), 234.00 °C. For `*c1ccc(Oc2ccc(C3(c4ccc(Oc5ccc(N6C(=O)c7ccc(Oc8ccc(C9(c%10ccc(Oc%11ccc%12c(c%11)C(=O)N(*)C%12=O)cc%10)CCCCCCCCCCC9)cc8)cc7C6=O)cc5)cc4)C4CC5CC(C4)CC3C5)cc2)cc1` (repeat unit), the glass transition temperature is 262.00 °C. As to `*c1ccc(Oc2ccc(N3C(=O)C(Cl)=C(Oc4ccc(C(c5ccc(OC6=C(Cl)C(=O)N(*)C6=O)cc5)(C(F)(F)F)C(F)(F)F)cc4)C3=O)cc2)cc1` (repeat unit), the glass transition temperature was 193.00 °C.

The molecule `*c1ccc(Oc2ccc(Oc3ccc(-c4cnc5ccc(-c6ccc7nc(*)cnc7c6)cc5n4)cc3)cc2)cc1` (repeat unit) gave a glass transition temperature of 235.00 °C. Under `*c1ccc(Oc2ccc(Oc3ccc(-c4cnc5ccc(-c6ccc7ncc(*)nc7c6)cc5n4)cc3)cc2)cc1` (repeat unit) stands 235.00 °C; under `*c1ccc(Oc2ccc(Oc3ccc(N4C(=O)c5ccc(-c6ccc7c(c6)C(=O)N(*)C7=O)cc5C4=O)cc3)c(C)c2)cc1` (repeat unit), 265.00 °C; under `*c1ccc(Oc2ccc(Oc3ccc(N4C(=O)c5ccc(Oc6ccc(C7(c8ccc(Oc9ccc%10c(c9)C(=O)N(*)C%10=O)cc8)CCCCCCCCCCC7)cc6)cc5C4=O)cc3)c(C(C)(C)C)c2)cc1` (repeat unit), 262.00 °C. As for `*c1ccc(Oc2ccc(Oc3ccc(Oc4ccc(-c5cnc6ccc(-c7ccc8nc(*)cnc8c7)cc6n5)cc4)cc3)cc2)cc1` (repeat unit), the figure is 216.00 °C; as for `*c1ccc(Oc2ccc(Oc3ccc(Oc4ccc(-c5cnc6ccc(-c7ccc8ncc(*)nc8c7)cc6n5)cc4)cc3)cc2)cc1` (repeat unit), 216.00 °C; as for `*c1ccc(Oc2cccc(Oc3ccc(-n4c(=O)c5cc6c(=O)n(*)c(=O)c6cc5c4=O)cc3)c2C#N)cc1` (repeat unit), 328.00 °C. Under `*c1ccc(Oc2cccc(Oc3ccc(N4C(=O)c5ccc(Oc6ccc(C(=O)c7ccc(Oc8ccc9c(c8)C(=O)N(*)C9=O)cc7)cc6)cc5C4=O)cc3)c2)cc1` (repeat unit) stands 194.00 °C. Take `*c1ccc2c(c1)C(=O)N(c1ccc(Oc3cc(C(C)(C)C)c(Oc4ccc(N5C(=O)c6ccc(C(*)(C(F)(F)F)C(F)(F)F)cc6C5=O)cc4)cc3C(C)(C)C)cc1)C2=O` (repeat unit): the glass transition temperature worked out at 277.00 °C. `*c1nnc(-c2ccc(Oc3ccc(/C=C/c4ccc(Oc5ccc(*)c6ccccc56)cc4)cc3)c3ccccc23)o1` (repeat unit): the glass transition temperature came out at 238.00 °C.
